# According to ChEMBL document CHEMBL1158737, “The psammaplysenes, specific inhibitors of FOXO1a nuclear export” (J Nat Prod, 2005):
# Active and inactive are the calls of the source. The calls are words filed in the database; no cut-off is given here.
# Biological target: Forkhead box protein O1 (Homo sapiens) (UniProt Q12778)
# Assay: Inhibition of FOXO1a nuclear export in PTEN-deficient cells
# Assay type: cell-based
# Sequence of Forkhead box protein O1 (Homo sapiens) (Q12778 whole entry): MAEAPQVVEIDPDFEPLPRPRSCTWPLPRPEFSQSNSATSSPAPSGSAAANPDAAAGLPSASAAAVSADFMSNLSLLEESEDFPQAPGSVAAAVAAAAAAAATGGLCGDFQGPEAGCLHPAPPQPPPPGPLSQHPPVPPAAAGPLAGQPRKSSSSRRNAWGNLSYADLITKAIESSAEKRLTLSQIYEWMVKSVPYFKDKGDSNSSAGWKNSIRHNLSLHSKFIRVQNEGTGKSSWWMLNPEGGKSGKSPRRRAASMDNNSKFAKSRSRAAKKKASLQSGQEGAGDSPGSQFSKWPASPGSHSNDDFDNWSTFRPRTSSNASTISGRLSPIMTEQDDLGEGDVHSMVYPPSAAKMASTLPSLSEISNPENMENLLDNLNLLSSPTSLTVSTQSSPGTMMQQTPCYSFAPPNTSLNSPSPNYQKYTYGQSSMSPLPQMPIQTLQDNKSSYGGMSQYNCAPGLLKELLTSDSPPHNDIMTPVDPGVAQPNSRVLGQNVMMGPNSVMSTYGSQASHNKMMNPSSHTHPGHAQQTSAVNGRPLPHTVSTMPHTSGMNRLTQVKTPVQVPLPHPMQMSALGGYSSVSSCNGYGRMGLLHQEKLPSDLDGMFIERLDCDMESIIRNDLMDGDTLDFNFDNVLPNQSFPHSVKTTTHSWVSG
structure (smiles),measurement,value
CNCCCOc1c(Br)cc(CCNC(=O)/C(Cc2ccc(OC)c(Br)c2)=N/O)cc1Br,Activity,inactive
